Source: US20120138290A1, “METHODS TO STIMULATE BIOGENIC METHANE PRODUCTION FROM HYDROCARBON-BEARING FORMATIONS” (SYNTHETIC GENOMICS, INC., priority 2010, published 2012)
“And” between values parts separate entries of the source, which are not always exact repeats. Identical values can stand only once.

What was measured:
[1] = tested on: formate-utilizing, methane-producing species in the enrichment culture; experiment: Stimulation of methane production by vanadium in cultures utilizing formate; format: cell-based; settings: for Methane (% in head space volume of 21 ml): DM media with 50 mM formate, 48 hours at 50° C., replicate cultures
Method: The anaerobic reactor system described above in Example 1 contains formate-utilizing, methane-producing species in the enrichment culture. Methanogens in the culture were previously identified by 16sRNA sequencing.
A 10% vol./vol. inoculum was taken from the anaerobic reactor system described above in Example 1, and the effect of vanadium on methane production by methanogens utilizing formate as a carbon and energy source was determined.
Cultures, established with DM media (prepared as described above) containing 50 mM formate as the sole carbon and energy source, were sub-cultured with the same media (in the absence of vanadium) or media supplemented with either 5 or 10 μM VCl3. Methane production was measured after 48 hours of growth at 50° C.

[2] = tested on: functional microbial subcommunity (inoculum 2L-245 from upflow reactor); experiment: Stimulation of methane production: batch cultures with additive/stimulant, with or without coal, headspace methane by gas chromatography; format: cell-based
Method: The availability of an inoculum of a functional microbial subcommunity capable of producing methane from coal in vitro prompted laboratory experiments where various stimulants were tested for their effect on methane production. […] The experiments were conducted at three different levels of additives (0.5×, 1× and 2×): additives (stimulants) were added in the following three concentrations. […] DMY media: DM media composition in milli-Q water is made as described above with the addition of 0.5 g/L yeast extract. DMSC media: DM media in milli-Q water is made as described above with the addition of 100 g/L sterile, anaerobic, sub-bituminous coal from the San Juan Basin. DMSCY media: DM media in milli-Q water is made as described above with the addition of 100 g/L sterile, anaerobic, sub-bituminous coal from the San Juan Basin and 0.5 g/L yeast extract. The coal used in these experiments originated from the San Juan Basin (BHP Billiton, Tex.). […] Each stimulant was tested in the presence or absence of coal. The experiments were conducted at three different concentrations of additives (0.5× (low), 1× (medium), and 2× (high)) as described above. Each sample type was conducted in 4 replicates. […] Control sample types were media alone, media plus coal, media plus yeast extract and media plus coal and yeast extract. At each time point, headspace measurements were taken using gas chromatography (microGC […], Agilent Technologies, Inc.). […] Each experiment was performed in quadruplicate. Methane at time 0 was assumed to be 0%.

[3] = DMSCY (coal), 5 μM VCl3, week 1
[4] = DMSCY (coal), 5 μM VCl3, week 3
[5] = DMSCY (coal), 5 μM VCl3, week 5
[6] = DMSCY (coal), 10 μM VCl3, week 1
[7] = DMSCY (coal), 10 μM VCl3, week 3
[8] = DMSCY (coal), 10 μM VCl3, week 5
[9] = DMY (no coal), 5 μM VCl3, week 1
[10] = DMY (no coal), 5 μM VCl3, week 3
[11] = DMY (no coal), 5 μM VCl3, week 5
[12] = DMY (no coal), 10 μM VCl3, week 1
[13] = DMY (no coal), 10 μM VCl3, week 3
[14] = DMY (no coal), 10 μM VCl3, week 5

## [Cl-].[Cl-].[Cl-].[V+3] [VCl3, vanadium (III) chloride]
[1]; 5 μM VCl3 final
  Methane (% in head space volume of 21 ml): 2.0% and 1.2%
[1]; 10 μM VCl3 final
  Methane (% in head space volume of 21 ml): 1.9% and 1.4%
[1]; VCl3-supplemented cultures (5 or 10 μM), 50 mM formate, 48 hours
  methane formation relative to cultures without VCl3 (average): approximately 2 fold
[2]; [3]
  methane production (Average): 0.27
  methane production (RepA-Rep D): 0.30 and 0.26 and 0.25
[2]; [4]
  methane production (Average): 1.50
  methane production (RepA-Rep D): 1.51 and 1.40 and 1.21 and 1.88
[2]; [5]
  methane production (Average): 2.44
  methane production (RepA-Rep D): 2.41 and 2.28 and 1.95 and 3.13
[2]; [6]
  methane production (Average): 0.25
  methane production (RepA-Rep D): 0.29 and 0.25 and 0.24
[2]; [7]
  methane production (Average): 1.06
  methane production (RepA-Rep D): 1.15 and 1.04 and 1.01
[2]; [8]
  methane production (Average): 1.36
  methane production (RepA-Rep D): 1.49 and 1.31 and 1.30 and 1.33
[2]; [9]
  methane production (Average): 0.20
  methane production (RepA-Rep D): 0.21 and 0.20
[2]; [10]
  methane production (Average): 0.71
  methane production (RepA-Rep D): 0.78 and 0.69 and 0.67 and 0.80
[2]; [11]
  methane production (Average): 0.70
  methane production (RepA-Rep D): 0.75 and 0.70 and 0.68 and 0.67
[2]; [12]
  methane production (Average): 0.22
  methane production (RepA-Rep D): 0.21 and 0.251 and 0.19 and 0.22
[2]; [13]
  methane production (Average): 0.77
  methane production (RepA-Rep D): 0.85 and 0.7495 and 0.70 and 0.78
[2]; [14]
  methane production (Average): 0.76
  methane production (RepA-Rep D): 0.76 and 0.82 and 0.70 and 0.77
[2]; intermediate concentration of the stimulant (FIGS. 1A, 1B, 2A)
  effect on the production of methane: statistically significant positive effect
[2]; with or without coal
  dependence of methane production on coal: only observed in the presence of coal
